Here are results for 50 molecules from ChEMBL document CHEMBL1201862, “PubChem BioAssay data set” (2004).

Broadly, the AC50 is the concentration giving half of the maximal activity seen. One may read the EC50 as the concentration giving half of the maximal effect.

The structures appear in SMILES notation. Activity calls are given as the source filed them.

For data set [1], the target named is Cytochrome P450 2C9 (Homo sapiens, UniProt P11712).
The target of data set [2] is T1, Heat shock factor protein 1 (Mus musculus, UniProt P38532).
T1 sequence (P38532 whole entry): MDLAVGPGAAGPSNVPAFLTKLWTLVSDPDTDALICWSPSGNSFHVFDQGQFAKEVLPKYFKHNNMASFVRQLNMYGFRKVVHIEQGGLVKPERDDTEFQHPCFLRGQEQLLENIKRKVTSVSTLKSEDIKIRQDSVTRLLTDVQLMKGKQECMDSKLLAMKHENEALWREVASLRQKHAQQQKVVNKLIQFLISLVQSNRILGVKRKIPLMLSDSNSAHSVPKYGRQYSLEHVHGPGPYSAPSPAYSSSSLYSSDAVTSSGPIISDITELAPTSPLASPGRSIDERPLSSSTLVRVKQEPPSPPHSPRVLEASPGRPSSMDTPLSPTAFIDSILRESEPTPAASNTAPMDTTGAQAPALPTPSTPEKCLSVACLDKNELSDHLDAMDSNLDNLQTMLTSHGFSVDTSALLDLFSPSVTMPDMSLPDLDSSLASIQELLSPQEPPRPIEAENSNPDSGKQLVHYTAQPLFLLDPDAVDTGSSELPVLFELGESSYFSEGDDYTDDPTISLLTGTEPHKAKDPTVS
Put plainly: inhibition of MG132-induced HSE-luciferase signal, confirmation, cell-based, NIH3T3, luminescence, dose retest (AID 2382).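 Further: NIH3T3 fibroblasts with HSF1-driven luciferase reporter stressed by proteasome inhibitor MG132; luminescence from HSF1-driven luciferase expression after 8 hours of MG132 stress.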 In kind it is functional.

In data set [3] the test system is Streptococcus. Put plainly: Group A Streptococcus viability loss, dose response, counter-screen for streptokinase expression inhibitor project, luminescence, BacTiterGlo (AID 1915).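 Further: potency for reduction of bacterial viability or growth.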 In kind it is functional, organism-based. Background: Counterscreens check selectivity or assay interference.
Data set [4] has as its target T2, Streptokinase A (Streptococcus pyogenes serotype M1, UniProt P10520).
T2 sequence (P10520 whole entry): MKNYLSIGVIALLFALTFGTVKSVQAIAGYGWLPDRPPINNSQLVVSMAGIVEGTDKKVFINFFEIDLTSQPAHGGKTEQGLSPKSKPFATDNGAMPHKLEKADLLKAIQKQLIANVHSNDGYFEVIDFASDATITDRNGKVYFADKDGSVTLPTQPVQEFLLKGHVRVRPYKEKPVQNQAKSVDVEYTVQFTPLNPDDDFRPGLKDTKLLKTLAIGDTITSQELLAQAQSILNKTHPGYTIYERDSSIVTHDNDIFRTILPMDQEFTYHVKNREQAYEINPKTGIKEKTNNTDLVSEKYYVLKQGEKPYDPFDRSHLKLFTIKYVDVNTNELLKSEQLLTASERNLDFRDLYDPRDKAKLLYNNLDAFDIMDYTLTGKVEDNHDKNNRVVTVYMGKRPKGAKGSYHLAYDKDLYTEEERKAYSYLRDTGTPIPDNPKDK
Kind of data set: S. pyogenes streptokinase expression inhibitors, potency, dose response, plasminogen activation absorbance, OD405 (AID 1914).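 Further: secreted streptokinase activity via plasminogen activation per viability signal from cell pellet.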 In kind it is functional, Streptococcus pyogenes M1 GAS.

Data set [5] has as its system Streptococcus sp. 'group A'. Kind of data set: growth inhibition of control SK(-) GAS strain, dose response, counter-screen for streptokinase expression inhibitor project, luminescence, kanamycin, BacTiterGlo, confirmation (AID 1900). Type of data set: functional, organism-based.
In data set [6] the target is Cytochrome P450 2C19 (Homo sapiens, UniProt P33261). Put plainly: Cytochrome panel assay with activity outcomes. Panel member name: p450-cyp2c19 Compounds with AC50 equal or less than 10 uM are considered active. In kind it is functional.
Data set [7] in a line: inhibitors of intracellular T. cruzi replication, confirmation, NIH3T3 host cells, beta-gal luminescence (AID 2044).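 Further: intracellular parasites grown in NIH/3T3 mouse fibroblasts as host cells; luminescent beta-galactosidase reporter signal from transgenic T. cruzi replicating inside host cells; inhibitors lower the luminescence signal.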 Type of data set: functional, cell-based.
Data set [8] in a line: cytotoxicity toward NIH3T3 fibroblasts, dose response, counter-screen, cell-based, ATP luminescence, mouse fibroblasts (AID 2010).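 Further: cells exposed to compound for about 90 hours before reading.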 Type of data set: functional.

Cytochrome P450 2C9, sequence (P11712 whole entry): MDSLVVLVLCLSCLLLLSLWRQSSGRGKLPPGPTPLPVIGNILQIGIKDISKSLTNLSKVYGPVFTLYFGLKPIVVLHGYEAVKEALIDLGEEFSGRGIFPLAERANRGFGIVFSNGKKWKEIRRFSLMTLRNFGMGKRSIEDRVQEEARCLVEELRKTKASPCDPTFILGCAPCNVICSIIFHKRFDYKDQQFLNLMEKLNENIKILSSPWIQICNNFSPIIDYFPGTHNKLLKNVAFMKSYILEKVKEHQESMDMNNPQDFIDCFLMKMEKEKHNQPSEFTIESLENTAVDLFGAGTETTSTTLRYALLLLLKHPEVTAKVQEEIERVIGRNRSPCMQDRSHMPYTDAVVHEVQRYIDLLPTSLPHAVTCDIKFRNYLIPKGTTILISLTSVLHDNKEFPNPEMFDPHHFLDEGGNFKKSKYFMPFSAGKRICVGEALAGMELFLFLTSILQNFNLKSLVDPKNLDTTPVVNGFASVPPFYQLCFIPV
Cytochrome P450 2C19, sequence (P33261 whole entry): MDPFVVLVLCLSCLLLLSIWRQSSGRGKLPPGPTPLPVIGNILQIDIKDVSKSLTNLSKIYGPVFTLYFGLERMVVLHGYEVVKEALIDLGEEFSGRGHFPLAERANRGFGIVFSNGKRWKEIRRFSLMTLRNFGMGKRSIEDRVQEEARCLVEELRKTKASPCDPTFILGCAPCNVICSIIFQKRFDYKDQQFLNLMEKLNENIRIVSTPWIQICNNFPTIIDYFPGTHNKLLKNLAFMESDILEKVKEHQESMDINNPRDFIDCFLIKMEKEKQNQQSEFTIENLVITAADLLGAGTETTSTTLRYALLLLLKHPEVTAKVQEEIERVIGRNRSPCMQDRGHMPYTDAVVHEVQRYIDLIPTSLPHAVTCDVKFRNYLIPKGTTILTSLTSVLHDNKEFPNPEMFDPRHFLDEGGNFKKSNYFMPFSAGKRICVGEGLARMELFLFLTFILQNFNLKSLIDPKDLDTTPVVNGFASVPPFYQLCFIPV

Consider `CCOC(=O)c1c(-c2ccccc2)nc2ccc(Cl)cn12`, for which the half-maximal activity concentration (AC50) in data set [1] was 15.8 µM (inconclusive). As for `CSc1nc(Cc2ccccc2)cc(=O)[nH]1`, the EC50 in data set [2] is > 195 µM (not active).

As for `CN(CCc1ccccn1)c1ccc2c(c1)Cc1ccccc1-2`, the half-maximal activity concentration (AC50) in data set [1] is 7.94 µM (inconclusive).

With `COc1ccc(Cl)cc1C(=O)NNC(=S)NC(=O)c1cc(-c2ccccc2)nc2ccccc12`, the 50% effective concentration (EC50) was > 150 µM (inconclusive) in data set [3], > 150 µM (not active) in data set [4] and 1.31 µM (active) in data set [5]. As for `COC(=O)c1ccc(NC(=O)c2cc3sccc3n2C)cc1`, the half-maximal activity concentration (AC50) in data set [1] was 10 µM (inconclusive).

As for `CCCCNC(=O)c1onc(CSc2cccc(Cl)c2)c1C(=O)O`, the concentration giving a half-maximal response (EC50) in data set [2] is listed as > 195 µM (not active). For `Fc1ccccc1N=C(S)Nc1ccc(CN2CCOCC2)cc1`, in data set [2], the EC50 was 68.4 µM (active). As for `N#Cc1c(N)n(-c2ccccc2N)c2nc3ccccc3nc12`, the EC50 in data set [2] is 11.2 µM (active).

With `COc1ccc(Cl)cc1C(=O)NNC(=S)NC(=O)c1ccc(F)c(F)c1`, the EC50 in data set [3] is 1.37 µM (active); in data set [5] it was 0.217 µM (active). Take `O=C(O)c1cc(-c2ccc(-c3ccc(-c4cc(C(=O)O)c5cc(Cl)ccc5n4)cc3)cc2)nc2ccc(Cl)cc12`: in data set [1], the half-maximal activity concentration (AC50) is 3.16 µM (inconclusive).

On to `O=C(NCC1CCCO1)C(c1cccnc1)N(C(=O)Cc1cccs1)c1cccnc1` (stereo not given), for which, in data set [6] (read-out: AC50), the half-maximal activity concentration (AC50) is 31.6 µM (inconclusive).

As to `Cc1cc(NC2CCCC2)n2nc(C)c(-c3ccccc3)c2n1`, the 50% effective concentration (EC50) in data set [7] is 3.4 µM (active); in data set [8], > 60 µM (not active). Regarding `Cc1cc(C)cc(NS(=O)(=O)c2ccc(NC(=S)NC(=O)c3cccs3)cc2)c1`, the EC50 in data set [3] is 50.1 µM (active); in data set [4], 11.7 µM (active); in data set [5], 4.5 µM (active). For the molecule `Nc1ccccc1SCC(=O)Nc1ccc2c(c1)OCCO2`, the half-maximal effective concentration (EC50) in data set [2] was > 195 µM (not active). Take `CCCC[C@@H]1CNC(=O)C(=O)N1CCc1cccc2ccccc12`: the EC50 in data set [2] is on record as > 195 µM (not active). On the same count and under the same terms, with `Cc1ccc(SCCCn2cncn2)cc1` the figure was > 195 µM (not active); with `CC(C)(C)NC(=O)C1CC(=O)OC12CCOC(C)(C)C2` (stereo not given), > 195 µM (not active). Regarding `COC(=O)[C@H]1C[C@@H]1[C@H](NC(=O)c1ccccc1)c1ccccc1`, in data set [1], the AC50 was 39.8 µM (inconclusive). For the molecule `CCn1c(SCC(=O)Nc2sc3c(c2C#N)CCCC3)nnc1-c1ccco1`, the concentration giving a half-maximal response (EC50) was 1.89 µM (active) in data set [7] and > 60 µM (inconclusive) in data set [8]. Regarding `Cc1cccc(C(=O)NC2CCN(C(=O)Nc3ccc(F)cc3)CC2)c1`, the EC50 in data set [2] was 32.7 µM (active). Regarding `C[C@H](CCC(=O)NN)[C@@H]1CC[C@@H]2[C@H]3CC[C@H]4C[C@@H](O)CC[C@@]4(C)[C@@H]3CC[C@]21C`, the AC50 in data set [6] (read-out: AC50) is 3.16 µM (inconclusive). In the case of `Cc1nn(Cc2ccccc2)c(C)c1NC(=O)c1noc2c1CCc1ccccc1-2`, the concentration for a half-maximal effect (EC50) in data set [2] was > 195 µM (not active). Turning to `Brc1ccc(C2C3=C(Nc4ncnn42)c2ccccc2OC3c2ccncc2)cc1` (stereo not given), the EC50 in data set [7] was 4.12 µM (active); in data set [8] it was > 60 µM (not active); in data set [3], 21.5 µM (active); in data set [4] it was > 150 µM (not active); in data set [5], 22.4 µM (active). With `CC(C)N1CCN(Cc2ccc3nsnc3c2)CC1CCO` (stereo not given), the EC50 in data set [2] is > 195 µM (not active).

In the case of `Oc1ccccc1C1CCCCC1c1ccccc1` (stereo not given), the values for the concentration for a half-maximal effect (EC50) in data set [3], in data set [4] and in data set [5] were 50.4 µM (active), 12.7 µM (active) and 3.83 µM (active), respectively. The like results for `COc1ccc(-c2oc(NC(=O)CSc3nc[nH]n3)c(C#N)c2-c2ccc(OC)cc2)cc1` were, in that order, 16 µM (active), 1.08 µM (active) and 2.37 µM (active). For `COc1cccc(-c2cncnc2NC2CCNCC2)c1`, the half-maximal activity concentration (AC50) entry in data set [6] is reported as “inconclusive”. For `CCCNC(=O)OC[C@@H]1O[C@H](CCO/N=C(\C)CCN2CCc3nc(-c4ccccc4)c(-c4ccccc4)cc3C2)C=C[C@@H]1Oc1ccc(OC)cc1`, the AC50 in data set [6] (read-out: AC50) is 0.316 µM (inconclusive).

Consider `Cc1ccsc1C(=O)C1CCCN(Cc2ccc(-n3cccn3)cc2)C1` (stereo not given), for which the concentration for a half-maximal effect (EC50) in data set [7] was 0.201 µM (active); in data set [8], > 60 µM (inconclusive). With `COc1ccccc1NC(=O)c1ccc(N2CC3CC(C2)c2cccc(=O)n2C3)c(NC(=O)c2ccncc2)c1` (stereo not given), the EC50 in data set [2] is reported as > 195 µM (not active). `CN1CCN(c2ccc(S(=O)(=O)N3CCCCC3)cc2[N+](=O)[O-])CC1`: the 50% effective concentration (EC50) was 0.81 µM (active) in data set [7] and > 60 µM (not active) in data set [8]. The like results for `O=C(c1ccc2c(c1)OCO2)C1CCCN(Cc2cccn2-c2cccnc2)C1` (stereo not given) were, in that order, 3.29 µM (active) and > 60 µM (not active). In the case of `O=C(Nc1ccccc1Cc1ccccc1)c1ccncc1`, the half-maximal effective concentration (EC50) is 0.802 µM (active) in data set [7] and > 60 µM (not active) in data set [8]. For the molecule `Cc1ccccc1OCCC(=O)OCC(=O)N1c2ccccc2NC(=O)C1(C)C`, the EC50 in data set [2] was > 195 µM (not active).

With `CS(=O)(=O)c1cccc(NC(=O)c2ccc(Cl)c(Cl)c2)c1`, the figures for the concentration for a half-maximal effect (EC50) in data set [7] and in data set [8] were 3.1 µM (active) and > 30 µM (not active), respectively.

On to `COc1cc(OC)cc(C(=O)N[C@H](C(=O)OCC(=O)N2CCc3ccccc32)C(C)C)c1`, for which, in data set [2], the EC50 was > 195 µM (not active). On to `CCCCCCN1N=C(C)C(C(=O)c2ccc(Cl)cc2)C1=O` (stereo not given), for which the results for the EC50 in data set [3], in data set [4] and in data set [5] were 29.5 µM (active), > 150 µM (not active) and 2.44 µM (active), respectively. The like results for `CCOC(=O)c1ccc(NC(=O)c2[nH]cnc2C(=O)N[C@@H](Cc2ccccc2)C(=O)OC(C)(C)C)cc1` were, in that order, 44.9 µM (active), > 150 µM (not active) and 5.26 µM (active). The like results for `COc1ccc(-c2[nH]ncc2N=Nc2cc(C)cc(C)c2)cc1` were, in that order, > 150 µM (not active), > 150 µM (not active) and 23.1 µM (active). For `O=C(CNCCc1ccc(F)cc1)Nc1cc(F)ccc1F`, the concentration giving a half-maximal response (EC50) in data set [2] is listed as > 195 µM (not active).

Regarding `CC(OC(=O)CN1C(=O)NC2(CCCC2)C1=O)C(=O)c1ccccc1` (stereo not given), in data set [2], the concentration for a half-maximal effect (EC50) was > 195 µM (not active). For `Cn1cccc1C(=O)N1CCC2(CCN(Cc3ccc(C#N)cc3)CC2)CC1`, the AC50 in data set [6] (read-out: AC50) was 0.2 µM (inconclusive). In the case of `CC(=O)c1c(-c2ccc(Cl)cc2Cl)noc1C`, the EC50 in data set [2] is listed as > 195 µM (not active). In the case of `CCC1CC(CSc2nc[nH]n2)OC1=O` (stereo not given), the AC50 in data set [1] was 25.1 µM (inconclusive). On to `CCOC(=O)c1c(-c2ccc(OC)cc2)csc1NC=C1C(=O)CCCC1=O`, for which the 50% effective concentration (EC50) in data set [3] was 32.7 µM (active); in data set [4], > 150 µM (not active); in data set [5] it was 66 µM (active).

For `Cc1c(C#N)c(/N=C/N(C)C)c(C(=O)c2ccc(Br)cc2)n1-c1ccc(Cl)cc1`, the concentration for a half-maximal effect (EC50) in data set [7] is 2.8 µM (active); in data set [8], > 60 µM (inconclusive). In the case of `Cc1nn(-c2ccccc2)c(C)c1/C=N/NC(=O)c1cc(C23CC4CC(CC(C4)C2)C3)[nH]n1`, the 50% effective concentration (EC50) in data set [3] is 46.2 µM (active); in data set [4] it was 10.3 µM (active); in data set [5] it was 5.31 µM (active). As for `Oc1ccccc1/N=C/c1c(O)ccc2oc3c(c12)CCCC3`, the 50% effective concentration (EC50) in data set [3] was 10.6 µM (active); in data set [4], > 150 µM (not active); in data set [5], 7.61 µM (active). As for `CCO/C(O)=C1\C(C)=Nc2sc(C(=O)c3ccc(Br)cc3)c(N)c2C1c1ccc(C(=O)OC)cc1` (stereo not given), the concentration giving a half-maximal response (EC50) in data set [7] was 1.09 µM (active); in data set [8], 15.8 µM (active).

Consider `COc1ccc(Cl)cc1Nc1nc(-c2cccnc2)cs1`, for which the figures for the concentration giving a half-maximal response (EC50) in data set [7] and in data set [8] were 3.22 µM (active) and 14 µM (active), respectively.
